In the supplement of paper PMC10307832:

What was measured:
Test in all cases: relative viability (nuclei count vs DMSO), 5 days (fraction); higher = more cells survive
HCC-366 = test system: HCC-366
Method in brief: (§1)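 Lung cancer cell lines, seeded in 1536-well plates, were treated the following day by pin tool with a single drug or with five library-drug doses (not always all listed) in √10 steps on top of a fixed anchor-drug dose. Cells were fixed and nuclei stained in one step after 5 days, and nuclei were counted. Relative viability is the nuclei count for treated wells divided by that for vehicle wells, reported as medians of duplicate plates.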

NCI-H2009 = test system: NCI-H2009
Method in brief: as §1

SK-LU-1 = test system: SK-LU-1
Method in brief: as §1

HCC-15 = test system: HCC-15
Method in brief: as §1

NCI-H2023 = test system: NCI-H2023
Method in brief: as §1

NCI-H460 = test system: NCI-H460
Method in brief: as §1

NCI-H1437 = test system: NCI-H1437
Method in brief: as §1

NCI-H1915 = test system: NCI-H1915
Method in brief: as §1

NCI-H1793 = test system: NCI-H1793
Method in brief: as §1

NCI-H596 = test system: NCI-H596
Method in brief: as §1

NCI-H2405 = test system: NCI-H2405
Method in brief: as §1

PC-14 = test system: PC-14
Method in brief: as §1

H3255 = test system: H3255
Method in brief: as §1

A-427 = test system: A-427
Method in brief: as §1

NCI-H441 = test system: NCI-H441
Method in brief: as §1

NCI-H3122 = test system: NCI-H3122
Method in brief: as §1

UMC-11 = test system: UMC-11
Method in brief: as §1

LXF-289 = test system: LXF-289
Method in brief: as §1

HARA = test system: HARA
Method in brief: as §1

NCI-H1975 = test system: NCI-H1975
Method in brief: as §1

NCI-H1755 = test system: NCI-H1755
Method in brief: as §1

PC-3 [JPC-3] = test system: PC-3 [JPC-3]
Method in brief: as §1

Q: How did the relative viability (HCC-366; first compound 0.08 µM) turn out when Cc1cnc(-c2cnc(NCCNc3ccc(C#N)cn3)nc2-c2ccc(Cl)cc2Cl)[nH]1 + CC1(C)CCC(c2ccc(Cl)cc2)=C(CN2CCN(c3ccc(C(=O)NS(=O)(=O)c4ccc(N[C@H](CCN5CCOCC5)CSc5ccccc5)c(S(=O)(=O)C(F)(F)F)c4)cc3)CC2)C1 [Navitoclax] (partner 0.5 µM) was run?
A: 1.04

Q: What about the relative viability (HCC-366; first compound 0.253 µM) of the same compound?
A: 1.02

Q: What about the relative viability (HCC-366; first compound 0.8 µM) of the same compound?
A: 1.09

Q: And the relative viability (HCC-366; first compound 2.53 µM)?
A: 0.89

Q: And the relative viability (NCI-H2009; first compound 0.08 µM)?
A: 1.15

Q: And the relative viability (NCI-H2009; first compound 0.253 µM)?
A: 1.16

Q: What about the relative viability (NCI-H2009; first compound 0.8 µM) of the same compound?
A: 1.28

Q: What about the relative viability (NCI-H2009; first compound 2.53 µM) of the same compound?
A: 1.06

Q: What about the relative viability (SK-LU-1; first compound 0.08 µM) of the same compound?
A: 0.976

Q: And the relative viability (SK-LU-1; first compound 0.253 µM)?
A: 0.807

Q: And the relative viability (SK-LU-1; first compound 0.8 µM)?
A: 1.2

Q: What about the relative viability (SK-LU-1; first compound 2.53 µM) of the same compound?
A: 0.692

Q: And the relative viability (HCC-15; first compound 0.08 µM)?
A: 0.737

Q: And the relative viability (HCC-15; first compound 0.253 µM)?
A: 0.622

Q: And the relative viability (HCC-15; first compound 0.8 µM)?
A: 0.65

Q: And the relative viability (HCC-15; first compound 2.53 µM)?
A: 0.578

Q: And the relative viability (NCI-H2023; first compound 0.08 µM)?
A: 1.01

Q: What about the relative viability (NCI-H2023; first compound 0.253 µM) of the same compound?
A: 0.977

Q: What about the relative viability (NCI-H2023; first compound 0.8 µM) of the same compound?
A: 1.08

Q: What about the relative viability (NCI-H2023; first compound 2.53 µM) of the same compound?
A: 1.09

Q: And the relative viability (NCI-H460; first compound 0.08 µM)?
A: 1.16

Q: What about the relative viability (NCI-H460; first compound 0.253 µM) of the same compound?
A: 1.12

Q: What about the relative viability (NCI-H460; first compound 0.8 µM) of the same compound?
A: 1.17

Q: What about the relative viability (NCI-H460; first compound 2.53 µM) of the same compound?
A: 1.04

Q: What about the relative viability (NCI-H1437; first compound 0.08 µM) of the same compound?
A: 1.1

Q: And the relative viability (NCI-H1437; first compound 0.253 µM)?
A: 1.05

Q: And the relative viability (NCI-H1437; first compound 0.8 µM)?
A: 1.12

Q: And the relative viability (NCI-H1437; first compound 2.53 µM)?
A: 1.12

Q: And the relative viability (NCI-H1915; first compound 0.08 µM)?
A: 0.85

Q: And the relative viability (NCI-H1915; first compound 0.8 µM)?
A: 0.704

Q: What about the relative viability (NCI-H1915; first compound 2.53 µM) of the same compound?
A: 0.778

Q: What about the relative viability (NCI-H1793; first compound 0.08 µM) of the same compound?
A: 0.399

Q: What about the relative viability (NCI-H1793; first compound 0.253 µM) of the same compound?
A: 0.446

Q: What about the relative viability (NCI-H1793; first compound 0.8 µM) of the same compound?
A: 0.283

Q: What about the relative viability (NCI-H1793; first compound 2.53 µM) of the same compound?
A: 0.354

Q: And the relative viability (NCI-H596; first compound 0.08 µM)?
A: 1.1

Q: What about the relative viability (NCI-H596; first compound 0.253 µM) of the same compound?
A: 0.79

Q: What about the relative viability (NCI-H596; first compound 0.8 µM) of the same compound?
A: 0.882

Q: And the relative viability (NCI-H596; first compound 2.53 µM)?
A: 0.897

Q: What about the relative viability (NCI-H2405; first compound 0.08 µM) of the same compound?
A: 1.17

Q: And the relative viability (NCI-H2405; first compound 0.253 µM)?
A: 0.761

Q: And the relative viability (NCI-H2405; first compound 0.8 µM)?
A: 1.02

Q: What about the relative viability (NCI-H2405; first compound 2.53 µM) of the same compound?
A: 0.326

Q: What about the relative viability (PC-14; first compound 0.08 µM) of the same compound?
A: 1.1

Q: What about the relative viability (PC-14; first compound 0.253 µM) of the same compound?
A: 0.883

Q: And the relative viability (PC-14; first compound 0.8 µM)?
A: 1

Q: And the relative viability (PC-14; first compound 2.53 µM)?
A: 0.895

Q: What about the relative viability (H3255; first compound 0.08 µM) of the same compound?
A: 0.413

Q: And the relative viability (H3255; first compound 0.253 µM)?
A: 0.424

Q: And the relative viability (H3255; first compound 0.8 µM)?
A: 0.508

Q: What about the relative viability (H3255; first compound 2.53 µM) of the same compound?
A: 0.361

Q: And the relative viability (A-427; first compound 0.08 µM)?
A: 0.939

Q: What about the relative viability (A-427; first compound 0.253 µM) of the same compound?
A: 0.947

Q: What about the relative viability (A-427; first compound 0.8 µM) of the same compound?
A: 0.973

Q: And the relative viability (A-427; first compound 2.53 µM)?
A: 0.925

Q: What about the relative viability (NCI-H441; first compound 0.08 µM) of the same compound?
A: 0.719

Q: And the relative viability (NCI-H441; first compound 0.253 µM)?
A: 0.535

Q: And the relative viability (NCI-H441; first compound 0.8 µM)?
A: 0.745

Q: And the relative viability (NCI-H441; first compound 2.53 µM)?
A: 0.57

Q: What about the relative viability (NCI-H3122; first compound 0.08 µM) of the same compound?
A: 0.988

Q: And the relative viability (NCI-H3122; first compound 0.253 µM)?
A: 0.881

Q: And the relative viability (NCI-H3122; first compound 0.8 µM)?
A: 0.977

Q: What about the relative viability (NCI-H3122; first compound 2.53 µM) of the same compound?
A: 0.994

Q: And the relative viability (UMC-11; first compound 0.08 µM)?
A: 0.341

Q: What about the relative viability (UMC-11; first compound 0.253 µM) of the same compound?
A: 0.295

Q: What about the relative viability (UMC-11; first compound 0.8 µM) of the same compound?
A: 0.304

Q: What about the relative viability (UMC-11; first compound 2.53 µM) of the same compound?
A: 0.324

Q: What about the relative viability (LXF-289; first compound 0.08 µM) of the same compound?
A: 0.934

Q: And the relative viability (LXF-289; first compound 0.253 µM)?
A: 0.873

Q: And the relative viability (LXF-289; first compound 0.8 µM)?
A: 0.924

Q: What about the relative viability (LXF-289; first compound 2.53 µM) of the same compound?
A: 1.01

Q: And the relative viability (HARA; first compound 0.08 µM)?
A: 1.13

Q: And the relative viability (HARA; first compound 0.253 µM)?
A: 1.12

Q: And the relative viability (HARA; first compound 0.8 µM)?
A: 1.16

Q: What about the relative viability (HARA; first compound 2.53 µM) of the same compound?
A: 1.19

Q: What about the relative viability (NCI-H1975; first compound 0.08 µM) of the same compound?
A: 1.12

Q: And the relative viability (NCI-H1975; first compound 0.253 µM)?
A: 0.982

Q: And the relative viability (NCI-H1975; first compound 0.8 µM)?
A: 0.933

Q: And the relative viability (NCI-H1975; first compound 2.53 µM)?
A: 0.567

Q: What about the relative viability (NCI-H1755; first compound 0.08 µM) of the same compound?
A: 1.07

Q: And the relative viability (NCI-H1755; first compound 0.253 µM)?
A: 0.866

Q: What about the relative viability (NCI-H1755; first compound 0.8 µM) of the same compound?
A: 1.01

Q: And the relative viability (NCI-H1755; first compound 2.53 µM)?
A: 0.989

Q: What about the relative viability (PC-3 [JPC-3]; first compound 0.08 µM) of the same compound?
A: 0.81

Q: And the relative viability (PC-3 [JPC-3]; first compound 0.253 µM)?
A: 0.71

Q: And the relative viability (PC-3 [JPC-3]; first compound 0.8 µM)?
A: 0.809

Q: What about the relative viability (PC-3 [JPC-3]; first compound 2.53 µM) of the same compound?
A: 0.729
